The numbers were not newly measured in US9273049B2 (North-West University, priority 2009, dated 2016), which cites them from elsewhere.

For this data set the following is noted: Class II = high permeability, low solubility.

For the compound `Cc1ccnc2c1NC(=O)c1cccnc1N2C1CC1` [nevirapine, 11-cyclopropyl1-5,11-dihydro-4-methyl-6H-dipyrido[3,2-b: 2′,3′-e][1,4]diazepin-6-one], the FDA classification result is on record as “Class II”.
